Assay results published in patent US11364275B2, “Linear lipopeptide paenipeptins and methods of using the same” (priority 2017, dated 2022).
≈ marks a conversion by molar mass, not a printed value. Where two headings read alike, the source gives them in different places. Where a SMILES comes first, the peptide text is derived from it. [ ]: non-standard residue; d: D form. The star is where a group is joined. Cha = N[C@@H](CC1CCCCC1)C(=O)O; Heptanoyl = CCCCCCC(=O)*; Octanoyl = CCCCCCCC(=O)*; Dab = NCC[C@H](N)C(=O)O

Tests used:
[1] = test system: Acinetobacter baumannii ATCC 19606; type: cell-based; conditions: ATCC 19606
[2] = test system: Escherichia coli ATCC 25922; type: cell-based; conditions: ATCC 25922
Description: (§4) The minimum inhibitory concentration (MIC) of paenipeptin analogues was determined using the broth microdilution method (Wirker, M. A. Methods for Dilution Antimicrobial Susceptibility Tests for Bacteria that Grow Aerobically: Approved Standard M07-A8; Clinical and Laboratory Standards Institute, Wayne, Pa., 2009). Seven reference strains (Acinetobacter baumannii ATCC 19606, Escherichia coli ATCC 25922, Klebsiella pneumoniae ATCC 13883, Pseudomonas aeruginosa ATCC 27853, Enterococcus faecium ATCC 19434, Staphylococcus aureus ATCC 29213 and methicillin-resistant S. aureus ATCC 43300) were subjected to MIC testing.
(§5) Paenipeptin analogues were two-fold diluted in tryptic soy broth (TSB; Becton Dickinson) and mixed with an equal volume of bacterial suspensions in TSB containing approximately 1.5×10^5 colony-forming units (CFU)/mL in a clear UV-sterilized 96-well microtiter plate (NBS, Corning Inc., Corning, N.Y.). […] The microtiter plate was incubated at 37° C. for 18-20 h.

[3] = test system: Pseudomonas aeruginosa ATCC 27853; type: cell-based; conditions: ATCC 27853
Description: as §4, §5

[4] = test system: Enterococcus faecium ATCC 19434; type: cell-based; conditions: ATCC 19434
Description: as §4, §5

[5] = test system: Staphylococcus aureus ATCC 29213; type: cell-based; conditions: ATCC 29213
Description: as §4, §5

P. aeruginosa ATCC 27853 = type: cell-based, Pseudomonas aeruginosa
From the text: (§1) The surviving cells from each antimicrobial concentration with no visible growth were enumerated by plating on tryptic soy agar (TSA). MBC was defined as the lowest concentration of the antimicrobial agent that led to at least a 99.9% reduction in the number of viable bacterial cells relative to the initial inoculum. There were three independent experiments with one replicate in each experiment.

S. aureus ATCC 29213 [6] = type: cell-based, Staphylococcus aureus
From the text: as §1

S. aureus ATCC 43300 = type: cell-based, Staphylococcus aureus
From the text: as §1

rabbit red blood cells = test: Hemolytic activity; type: cell-based; conditions: for Hemolysis: relative to Triton X-100
Description: Hemolytic activity was evaluated using defibrinated rabbit blood in a 96-well plate as described previously. A nonionic surfactant Triton X-100, which is capable of lysing red blood cells (RBCs), was used at 0.1% as a positive control. Briefly, rabbit blood (Hardy Diagnostics, Santa Maria, Calif.) was diluted with phosphate buffered saline (PBS; pH 7.2) at a 1:19 ratio (v/v) and free hemoglobin was removed by washing RBCs and centrifugation four times at 1,000×g at 4° C. for 5 min. Aliquots (50 μL) of washed RBCs were incubated with 150 μL two-fold dilutions of paenipeptin analogues at final concentrations of 16-128 μg/mL at 37° C. for 30 min in a microtiter plate (NBS, Corning Inc.). After incubation, treated RBCs were gently mixed by repeated pipetting. Aliquots (20 μL) of the cell suspension were mixed with 200 μL PBS in a new 96-well plate and centrifuged at 2,204×g for 10 min. The supernatant was transferred to a new 96-well plate for absorbance measurement at 415 nm using a Cell Imaging Multimode Reader (Cytation 3, BioTek; Winooski, Vt.). The percent hemolysis observed after exposure to each paenipeptin analogue was calculated relative to Triton X-100.

[7] = test system: methicillin-resistant S. aureus ATCC 43300; type: cell-based, Staphylococcus aureus; conditions: ATCC 43300
[8] = test system: Klebsiella pneumoniae ATCC 13883; type: cell-based; conditions: ATCC 13883
Description: as §4, §5

A. baumannii ATCC 19606 = type: cell-based, Acinetobacter baumannii
From the text: as §1

K. pneumoniae ATCC 13883 = type: cell-based, Klebsiella pneumoniae
From the text: as §1

E. faecium ATCC 19434 = type: cell-based, Enterococcus faecium
From the text: as §1

S. aureus ATCC 29213 [9] = type: cell-based, Staphylococcus aureus; conditions: ATCC 29213
Description: (§2) The impact of human serum on the antibacterial activity of selected paenipeptin analogues was determined using a procedure similar to that used for MIC determination as described above except that the microbiological medium was replaced by human serum (MP Biomedicals, Solon, Ohio). Paenipeptin analogues were two-fold diluted in 100% human serum and mixed with an equal volume of 90% serum containing approximately 1.5×10^5 CFU/mL of E. coli ATCC 25922 or S. aureus ATCC 29213. The final paenipeptin concentrations ranged from 0.5-64 μg/mL in 95% serum. The MIC in the presence of serum was then tested as described above.

E. coli ATCC 25922 = type: cell-based, Escherichia coli; conditions: ATCC 25922
Description: as §2

[10] = test system: Escherichia coli ATCC 25922; type: in vitro ADME
Description: To determine the stability of peptides in human serum, paenipeptin analogues were added into 100% human serum to a final concentration of 64 μg/ml. The mixtures were incubated at 37° C. and samples were withdrawn at 0, 6, 12 and 24 h. […] The residual antibacterial activity after incubation in human serum was compared to the non-treated control.

[11] = test system: Acinetobacter baumannii ATCC 19606; test: MIC of antibiotics with or without paenipeptin analogues (potentiation); type: cell-based; conditions: A. baumannii ATCC 19606; for Sensitization factor (clarithromycin) / Sensitization factor (erythromycin): 4 μg/mL paenipeptin
From the text: (§3) Gram-negative bacteria, including Acinetobacter and Klebsiella, are intrinsically resistant to the hydrophobic antibiotic rifampicin.

[12] = test system: Klebsiella pneumoniae ATCC 13883; test: as above; type: cell-based; conditions: K. pneumoniae ATCC 13883; for Sensitization factor (clarithromycin): 4 μg/mL paenipeptin
From the text: as §3

S. aureus ATCC 29213 [13] = conditions: cited from earlier work

| Compound | MIC [1] [µg/mL] | MIC [2] [µg/mL] | Minimum inhibitory concentration [2] [µg/mL] | MIC [3] [µg/mL] | MIC [4] [µg/mL] | MIC [5] [µg/mL] | Minimum inhibitory concentration [5] [µg/mL] | MBC (P. aeruginosa ATCC 27853) [µg/mL] | MBC (S. aureus ATCC 29213 [6]) [µg/mL] | MBC (S. aureus ATCC 43300) [µg/mL] | Hemolysis (rabbit red blood cells; 16 μg/mL) [%] | Hemolysis (rabbit red blood cells; 32 μg/mL) [%] | Hemolysis (rabbit red blood cells; 64 μg/mL) [%] | Hemolysis (rabbit red blood cells; 128 μg/mL) [%] | MIC [7] [µg/mL] | MIC [8] [µg/mL] | Minimum inhibitory concentration (S. aureus ATCC 29213 [9]) [µg/mL] | Minimum inhibitory concentration (E. coli ATCC 25922) [µg/mL] | MIC after incubation in human serum at 37° C. ([10]; ATCC 25922, 0 h) [µg/mL] | MIC after incubation in human serum at 37° C. ([10]; ATCC 25922, 12 h) [µg/mL] | further results |
| --- | --- | --- | --- | --- | --- | --- | --- | --- | --- | --- | --- | --- | --- | --- | --- | --- | --- | --- | --- | --- | --- |
| CCCCCCC(=O)N[C@@H](CCN)C(=O)N[C@H](C(=O)N[C@@H](CCN)C(=O)N[C@H](Cc1ccccc1)C(=O)N[C@@H](CC(C)C)C(=O)N[C@@H](CCN)C(=O)N[C@H](CC(C)C)C(=O)N[C@@H](CC(C)C)C(=O)N[C@@H](CO)C(N)=O)[C@@H](C)CC [Analogue 5] (Heptanoyl-[Dab]I[Dab][dF]L[Dab][dL]LS-NH2) | 8 to 16 | 1 to 4 | 1 to 4 | 2 to 4 | 8 to 16 | 16 to 32 | 16 to 32 | 8 to 16 | 16 to 32 | 16 to 32 | 0.96 ± 0.59 | 1.39 ± 0.55 | 4.86 ± 1.05 | 26.5 ± 4.45 | – | – | – | – | – | – | – |
| CCCCCCC(=O)N[C@@H](CCN)C(=O)N[C@@H](Cc1ccccc1)C(=O)N[C@@H](CCN)C(=O)N[C@H](Cc1ccccc1)C(=O)N[C@@H](CC(C)C)C(=O)N[C@@H](CCN)C(=O)N[C@H](CC(C)C)C(=O)N[C@@H](CC(C)C)C(=O)N[C@@H](CO)C(N)=O [Analogue 6] (Heptanoyl-[Dab]F[Dab][dF]L[Dab][dL]LS-NH2) | – | 1 to 4 | 1 to 4 | 2 to 4 | – | 16 to 32 | 16 to 32 | 8 to 16 | 16 to 32 | – | 0.14 ± 0.20 | 0.39 ± 0.30 | 2.03 ± 0.44 | 8.34 ± 1.80 | 16 to 32 | – | – | – | – | – | – |
| CCCCCCCC(=O)N[C@@H](CCN)C(=O)N[C@H](C(=O)N[C@@H](CCN)C(=O)N[C@H](Cc1ccccc1)C(=O)N[C@@H](CC(C)C)C(=O)N[C@@H](CCN)C(=O)N[C@@H](C(=O)N[C@@H](CC(C)C)C(=O)N[C@@H](CO)C(N)=O)C(C)C)[C@@H](C)CC [Analogue 8, C8-Pat] (Octanoyl-[Dab]I[Dab][dF]L[Dab][dV]LS-NH2) | – | 2 to 4 | 2 to 4 | – | – | 8 to 16 | 8 to 16 | 8 to 16 | – | 8 to 32 | 0.93 ± 0.45 | 1.91 ± 0.25 | 6.18 ± 2.48 | 25.3 ± 4.15 | 8 to 16 | 8 to 16 | 16 to 32 | – | – | – | MBC (A. baumannii ATCC 19606): 16 to 32 µg/mL; MBC (K. pneumoniae ATCC 13883): 8 to 16 µg/mL; MBC (E. faecium ATCC 19434): 16 to 32 µg/mL |
| CCCCCCCC(=O)N[C@@H](CCN)C(=O)N[C@H](C(=O)N[C@@H](CCN)C(=O)N[C@H](Cc1ccccc1)C(=O)N[C@@H](CC(C)C)C(=O)N[C@@H](CCN)C(=O)N[C@@H](C(=O)N[C@@H](CC(C)C)C(=O)N[C@@H](CCN)C(N)=O)C(C)C)[C@@H](C)CC [Analogue 9] (Octanoyl-[Dab]I[Dab][dF]L[Dab][dV]L[Dab]-NH2) | ≥32 | 4 to 16 | 4 to 16 | 2 to 4 | – | >32 | >32 | – | – | – | 0.52 ± 0.58 | 0.80 ± 0.68 | 0.73 ± 0.50 | 2.25 ± 2.18 | – | >32 | – | 2 to 4 | 1 to 2 | 1 to 2 | hemolytic activity (in words) (rabbit red blood cells; 128 μg/mL): non-hemolytic; MIC of ampicillin in the presence of […] μg/ml paenipeptin analogue [11]: 1-2 μg/ml; MIC of erythromycin in the presence of […] μg/ml paenipeptin analogue [11]: 0.125-0.25 μg/ml; MIC of rifampicin at 2 μg/mL of paenipeptin analogue [11]: 0.0019 μg/ml; MIC of rifampicin at 4 μg/mL of paenipeptin analogue [11]: 0.00195 μg/ml; MIC of vancomycin in the presence of […] μg/ml paenipeptin analogue [11]: 0.25-0.5 μg/ml; Sensitization factor (clarithromycin) [11]: 4,096-8,192; Sensitization factor (erythromycin) [11]: 128-256; MIC of ampicillin in the presence of […] μg/ml paenipeptin analogue [12]: 32 μg/ml; MIC of clarithromycin in the presence of […] μg/ml paenipeptin analogue [12]: 0.0156 μg/ml; MIC of erythromycin in the presence of […] μg/ml paenipeptin analogue [12]: 0.0625 μg/ml; MIC of rifampicin at 4 μg/mL of paenipeptin analogue [12]: <0.00098-0.00195 μg/ml; MIC of vancomycin in the presence of […] μg/ml paenipeptin analogue [12]: 16 μg/ml; Sensitization factor (clarithromycin) [12]: 2,048 |
| CC[C@H](C)[C@H](NC(=O)[C@H](CCN)NC(=O)[C@@H](N)CC1CCCCC1)C(=O)N[C@@H](CCN)C(=O)N[C@H](Cc1ccccc1)C(=O)N[C@@H](CC(C)C)C(=O)N[C@@H](CCN)C(=O)N[C@@H](C(=O)N[C@@H](CC(C)C)C(=O)N[C@@H](CO)C(N)=O)C(C)C [Analogue 16] (H-[Cha][Dab]I[Dab][dF]L[Dab][dV]LS-NH2) | ≥32 | 4 to 8 | 4 to 8 | 2 to 8 | >32 | >32 | >32 | 16 to 32 | – | – | 0.55 ± 0.75 | 0.33 ± 0.83 | 0.65 ± 0.62 | 1.63 ± 0.40 | – | – | >64 | 2 (≈ 1.75 µM) | 1 to 2 | >32 | MIC after incubation in human serum at 37° C. [10]: > 32 µg/mL; MIC after incubation in human serum at 37° C. ([10]; ATCC 25922, 24 h): >32 µg/mL; hemolytic activity (in words) (rabbit red blood cells; 128 μg/mL): non-hemolytic; MIC of ampicillin in the presence of […] μg/ml paenipeptin analogue [11]: 8-16 μg/ml; MIC of clarithromycin in the presence of […] μg/ml paenipeptin analogue [11]: 0.0156 μg/ml; MIC of erythromycin in the presence of […] μg/ml paenipeptin analogue [11]: 0.5 μg/ml; MIC of rifampicin at 2 μg/mL of paenipeptin analogue [11]: 0.0039-0.0078 μg/ml; MIC of vancomycin in the presence of […] μg/ml paenipeptin analogue [11]: 0.5-1 μg/ml; Sensitization factor (clarithromycin) [11]: 2,048; Sensitization factor (erythromycin) [11]: 64; Sensitization factor (rifampicin) ([11]; MIC without / with 4 μg/mL paenipeptin): 4,096; MIC of ampicillin in the presence of […] μg/ml paenipeptin analogue [12]: 32 μg/ml; MIC of erythromycin in the presence of […] μg/ml paenipeptin analogue [12]: 0.0625 μg/ml; MIC of rifampicin at 2 μg/mL of paenipeptin analogue [12]: 0.0039 μg/ml; MIC of rifampicin at 4 μg/mL of paenipeptin analogue [12]: <0.00098-0.00195 μg/ml; MIC of vancomycin in the presence of […] μg/ml paenipeptin analogue [12]: >32 μg/ml; Sensitization factor (clarithromycin) [12]: 2,048-4,096 |
| MX-2401 | – | – | – | – | – | – | – | – | – | – | – | – | – | – | – | – | – | – | – | – | MIC (S. aureus ATCC 29213 [13]; 95% mouse serum): 128 µg/mL; MIC (S. aureus ATCC 29213 [13]; microbiological medium): 2 µg/mL |
